Data set [1] deals with human oral squamous carcinoma. Also on record: method as in PMID 32858984, PMID 31892556. The note with it: cited from earlier work.
The subject of data set [2] is CEM cells. Kind of data set: Annexin V-FITC apoptosis assay in CEM cells. The format is cell-based, human. The note with it: CC50 and twice the CC50 concentrations, 24 h. The protocol: In order to discover if representative compounds induce apoptosis, the annexin V-FITC assay was used. In brief, CEM cells were treated with various compounds for 24 h. The cells were collected and stained with propidium iodide and annexin V-FITC.

Data set [3] can be described thus: MTT cytotoxicity against human pulp cell (HPC). The format is cell-based. As to conditions: human, human pulp cells (HPC), non-malignant oral cells. The protocol:
(§1) The method for evaluating 2a–f and 3a–e against human oral squamous cell carcinoma (OSCC) cell lines (Ca9-22, HSC-2, HSC-3, HSC-4) and human non-malignant oral cells [human gingival fibroblast (HGF), human periodontal ligament fibroblast (HPLF), and human pulp cell (HPC)] have been reported previously, except the length of time of this bioassay was extended from 24 h to 48 h. In brief, different quantities of the compounds were incubated with the cells in Dulbecco’s modified eagle medium (DMEM), which was supplemented with 10% FBS and antibiotics. The cell viability was determined by the 3-(4,5-dimethylthiazol-2-yl)-2,5-diphenyl-2H-tetrazolium bromide (MTT) method as summarized previously (Figure 4).

Data set [4] in a line: Average over HGF, HPLF and HPC non-malignant oral cells. It counts as cell-based, human. The note with it: human, HPLF and HPC non-malignant oral cells (average), average of HGF. Here is the method: as §1
For data set [5], the system named is HL-60 cells. Kind of data set: Differential DNA staining (DNS) cytotoxicity assay, HL-60 cells. The note with it: Homo sapiens. It counts as cell-based. Here is the method: (§2) The method used for generating the data of human acute lymphocytic leukemia (CEM) and human acute promyelocytic leukemia (HL-60) cells in Table 4 has been described previously. In brief, the cells were cultured in media supplemented with 10% FBS and antibiotics. […] The CC50 values of the compounds listed in Table 4 were obtained by linear interpolation equations [28, 29].

Data set [6] concerns HSC-3 squamous cell carcinoma cells. Kind of data set: MTT cytotoxicity against HSC-3 squamous cell carcinoma. The format is cell-based, human. As to conditions: for CC50: Homo sapiens, HSC-3, 48 h, MTT, read-out: HSC-3 CC50; for HSC-3 SI: average CC50 HGF/HPLF/HPC divided by CC50 HSC-3. The protocol:
as §1

For data set [7], the system named is CRL1790 non-malignant colon cells. Kind of data set: Cytotoxicity against CRL1790 non-malignant colon cells. It counts as cell-based. The note with it: Homo sapiens, 48 h. The protocol:
(§3) The culture medium was supplemented with 10% heat-inactivated fetal bovine serum (FBS) and 1% penicillin–streptomycin antibiotics. The time of the bioassays was 48 h. The determinations were undertaken in triplicate on three different occasions.

The test system of data set [8] is HSC-4 squamous cell carcinoma cells. Kind of data set: MTT cytotoxicity against HSC-4 squamous cell carcinoma. The format is cell-based, human. As to conditions: for CC50: Homo sapiens, HSC-4, 48 h, MTT, read-out: HSC-4 CC50; for HSC-4 SI: average CC50 HGF/HPLF/HPC divided by CC50 HSC-4. The protocol: as §1
Data set [9] concerns CEM cells. Kind of data set: Differential DNA staining (DNS) cytotoxicity assay, CEM cells. It counts as cell-based. As to conditions: Homo sapiens, CCRF-CEM. Here is the method: as §2
Data set [10] relates to HCT116 colon cancer cells. Kind of data set: Cytotoxicity against HCT116 colon cancer cells. The format is cell-based, human. As to conditions: for HCT116 SI (selectivity index): IC50 CRL1790 / IC50 HCT116. Here is the method:
as §3

For data set [11], the system named is Ca9-22, HSC-2, HSC-3, and HSC-4 squamous cell carcinoma cell lines. Kind of data set: Average over Ca9-22, HSC-2, HSC-3 and HSC-4 OSCC cell lines. The format is cell-based, human. The note with it: for CC50: average of four OSCC cell lines, read-out: Average CC50. The protocol:
as §1

Data set [12] concerns Ca9-22 cells. Kind of data set: Western blot for caspase 3 activation in Ca9-22 cells. It counts as cell-based, human. As to conditions: 3 μM, 24 h. Here is the method: (§4) Apoptosis induction in Ca9-22 cells was evaluated by cell cycle analysis and Western blot analysis as described previously (Figure 5). Briefly, for the cell cycle analysis, cells were treated for 24 h with the test samples. Cells were then fixed, digested with RNase A, stained with propidium iodide, filtered through Falcon® cell trainers (Corning Inc., Corning, NY, USA), and then subjected to cell sorting. For the Western blot, cell lysates (equivalent to 5 µg protein) were applied to SDS-polyacrylamide gel electrophoresis. A literature method was used to determine whether representative compounds led to increases in the production of ROS [29]. In brief, CEM cells were treated with the compounds overnight, then with 6-carboxy-2′,7′-dichlorodihydrofluorescein diacetate (carboxy-H2DCFDA) and the samples were processed using flow cytometry.

Data set [13] concerns HT29 colon cancer cells. Kind of data set: Cytotoxicity against HT29 colon cancer cells. As to conditions: for HT29 SI (selectivity index): IC50 CRL1790 / IC50 HT29. It counts as cell-based, human. The protocol: as §3
For data set [14], the system named is HCT116 and HT29 colon cancer cells. Kind of data set: Average over HCT116 and HT29 colon cancer cells. It counts as cell-based, human. As to conditions: for IC50: Homo sapiens, average of HCT116 and HT29, unit printed only for the single cell-line columns; for Average SI: average of SI for HCT116 and HT29; for PSE (potency-selectivity expression): reciprocal of average IC50 x average SI x 100, colon cells. Here is the method: as §3

The subject of data set [15] is CEM cells. Kind of data set: ROS production in CEM cells (carboxy-H2DCFDA, flow cytometry). The format is cell-based, human. As to conditions: CC50 and twice the CC50 concentrations. Here is the method:
as §4

Data set [16] concerns HSC-2 squamous cell carcinoma cells. Kind of data set: MTT cytotoxicity against HSC-2 squamous cell carcinoma. The format is cell-based, human. The note with it: for CC50: Homo sapiens, HSC-2, 48 h, MTT, read-out: HSC-2 CC50; for HSC-2 SI: average CC50 HGF/HPLF/HPC divided by CC50 HSC-2. Here is the method:
as §1

The subject of data set [17] is Ca9-22 squamous cell carcinoma cells. Kind of data set: MTT cytotoxicity against Ca9-22 squamous cell carcinoma. It counts as cell-based, human. The note with it: for CC50: Homo sapiens, Ca9-22, 48 h, MTT, read-out: Ca9-22 CC50; for Ca9-22 SI: average CC50 HGF/HPLF/HPC divided by CC50 Ca9-22. The protocol: as §1
A short description of data set [18]: MTT cytotoxicity against human periodontal ligament fibroblast (HPLF). The format is cell-based. The note with it: human, human periodontal ligament fibroblasts (HPLF), non-malignant oral cells. Here is the method: as §1
Data set [19] has as its system CEM cells. Kind of data set: Mitochondrial membrane potential in CEM cells (JC-1, flow cytometry). It counts as cell-based, human. As to conditions: 7 h. The protocol:
The effect on the mitochondrial membrane potential in CEM cells was undertaken using a published method. In brief, the cells were incubated with different compounds for 7 h. The cells were then stained with the JC-1 dye, and the samples were examined by flow cytometry. The results are portrayed in Figure 6C.

Data set [20] can be described thus: MTT cytotoxicity against human gingival fibroblast (HGF). The format is cell-based. As to conditions: human, human gingival fibroblasts (HGF), non-malignant oral cells. Here is the method: as §1
Where [21] appears, read: HL-60, 24 h, read-out: CC50 HL-60 Cells 24 h.
[22] abbreviates: HL-60, 48 h, read-out: CC50 HL-60 Cells 48 h.
Where [23] appears, read: 24 h, read-out: CC50 CEM Cells 24 h.
[24] abbreviates: 48 h, read-out: CC50 CEM Cells 48 h.

Like-named read-outs stand apart in the source and are kept apart here. Where only a bound is given, the exact number is not on record here.

As for `COc1ccc2c(=O)c(/C=C/c3ccc(O)cc3)coc2c1` [3-[(1E)-2-(4-hydroxyphenyl)ethenyl]-7-methoxy-4H-1-benzopyran-4-one], in data set [1], the “SI (tumor specificity)” value is on record as 182.
For `COc1ccc2c(=O)c(/C=C/c3ccccc3)coc2c1` [7-methoxy-3-[(1E)-2-phenylethenyl]-4H-1-benzopyran-4-one], in [1], the “SI (tumor specificity)” value is listed as 301.
Regarding `COc1ccc(C=C2CNCC(=Cc3ccc(O)c(CN(C)C)c3)C2=O)cc1OC.Cl.Cl` [Compound 2a, 3-(3,4-Dimethoxybenzylidene)-5-(3-((dimethylamino)methyl)-4-hydroxybenzylidene)-4-piperidone dihydrochloride], in data set [2], the apoptotic cells entry is “approximately 30%”. The CC50 at 48 h in data set [3] stood at 2300 nM; in [4], 7730 nM; in [18] it was 5000 nM; in [20], 15900 nM. Further, the CC50 in [5] (setting [21]) is 1990 ± 920 nM; in data set [5] (setting [22]), 2210 ± 370 nM; in data set [6] it was 1060 nM; in data set [8], 1390 nM; in data set [9] (setting [23]), 1640 ± 680 nM; in data set [9] (setting [24]), 820 ± 20 nM. Also, the CC50 stood at 1080 nM in [11] (Homo sapiens), 1200 nM in data set [16] and 680 nM in data set [17]. In addition, the “HSC-3 SI” value in data set [6] came to 7.29. Also, the IC50 in [7] is 17500 ± 580 nM; in [10] (Homo sapiens, HCT-116, 48 h, 48 h), 1730 ± 480 nM; in [13] (Homo sapiens, HT-29, 48 h, 48 h), 1800 ± 1240 nM; in [14], 1770 nM. The “HSC-4 SI” value in data set [8] amounted to 5.56. The “HCT116 SI (selectivity index)” value in [10] stood at 10.1. Besides, the “Average SI” value in [11] (average of SI for four OSCC cell lines) worked out at 7.67; in data set [14], 9.91. Moreover, the “caspase 3 activation (cleavage of PARP and procaspase)” value in data set [12] was “induced”. The “HT29 SI (selectivity index)” value in data set [13] is 9.72. The “PSE (potency-selectivity expression)” value in [14] is 560. For the same compound, the ROS generation entry in [15] is given as “generate ROS”. For the same compound, in data set [16], the “HSC-2 SI” value worked out at 6.44. Further, the “Ca9-22 SI” value in [17] stood at 11.4. The “depolarization of the mitochondrial membrane potential” value in data set [19] is given as “induced”.
As for `CN1CCN(Cc2cc(/C=C3\CNC/C(=C\c4ccc([N+](=O)[O-])cc4)C3=O)ccc2O)CC1` [Compound 3e], the apoptotic cells result in data set [2] is listed as “approximately 30%”. Moreover, the CC50 at 48 h in data set [3] turned out to be 1900 nM; in data set [4] it was 5700 nM; in data set [18], 2700 nM; in [20] it was 12500 nM. The CC50 in data set [5] (setting [21]) amounted to 4110 nM; in [5] (setting [22]), 6630 ± 680 nM; in data set [6], 470 nM; in data set [8] it was 600 nM; in data set [9] (setting [23]), 760 ± 150 nM; in data set [9] (setting [24]), 830 ± 30 nM. In addition, the CC50 in data set [11] (Homo sapiens) was under 1000 nM; in data set [11], 500 nM; in [16] it was 580 nM; in data set [17], 330 nM. In data set [6], the “HSC-3 SI” value was 12.1. The IC50 in [7] was 15800 ± 270 nM; in data set [14], 330 nM. Moreover, in data set [8], the “HSC-4 SI” value came to 9.50. In addition, the “HCT116 SI (selectivity index)” value in [10] stood at 46.5. Besides, in [12], the “caspase 3 activation (cleavage of PARP and procaspase)” value is given as “induced”. Further, the “HT29 SI (selectivity index)” value in [13] stood at 49.4. In addition, in [14], the “Average SI” value is given as 48.0. Besides, in [14], the “PSE (potency-selectivity expression)” value was 14,546. Also, in data set [15], the ROS generation entry is “generate ROS”. Also, the “HSC-2 SI” value in data set [16] was determined as 9.83. Moreover, in data set [17], the “Ca9-22 SI” value came to 17.3. Further, in data set [19], the “depolarization of the mitochondrial membrane potential” value is “induced”.
